This passage reports inhibition and IC50 results from patent US8076358B2, “6-substituted-thio-2-amino-quinoline derivatives useful as inhibitors of β-secretase (BACE)” (Janssen Pharmaceutica NV, priority 2008, dated 2011).

The target in this assay is human BACE-1 (Homo sapiens, UniProt P56817). Nature of the assay: In Vitro BACE Assay (CEREP, fluorogenic substrate). Type of assay: biochemical. The settings on record: recombinant enzyme; for inhibition at 10 µM: 10 μM test compound, pH 4.5; for IC50: pH 4.5, 60 min at 37° C. As to the method: This assay was run by CEREP (Catalog Ref. 761-B, Referred to SOP No. 1C131; ERMOLIEFF, J., LOY, J. A., KOELSCH, G. and TANG, J., Proteolytic activation of recombinant pro-memapsin 2 (pro-BACE) studied with new fluorogenic substrates, Biochemistry, (2000) Vol. 39, p. 12450).
Sequence of human BACE-1 (P56817 46-501): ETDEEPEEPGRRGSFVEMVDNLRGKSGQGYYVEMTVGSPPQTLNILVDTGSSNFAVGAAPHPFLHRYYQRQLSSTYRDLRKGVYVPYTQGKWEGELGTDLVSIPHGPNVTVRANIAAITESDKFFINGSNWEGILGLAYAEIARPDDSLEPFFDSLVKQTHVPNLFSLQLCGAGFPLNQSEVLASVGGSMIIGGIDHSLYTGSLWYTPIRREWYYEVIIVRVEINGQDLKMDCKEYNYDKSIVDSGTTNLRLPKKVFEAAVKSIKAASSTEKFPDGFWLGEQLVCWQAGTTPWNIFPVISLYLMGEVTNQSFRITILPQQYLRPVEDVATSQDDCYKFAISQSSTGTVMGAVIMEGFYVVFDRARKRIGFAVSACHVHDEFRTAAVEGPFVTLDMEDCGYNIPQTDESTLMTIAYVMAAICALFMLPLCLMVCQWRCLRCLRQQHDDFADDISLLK
More specifically the assay, run at 50 μL in a 96 well plate, evaluated the effect of test compound on the activity of the human BACE-1 quantified by measuring the formation of Mca-S-E-V-N-L-NH2 from Mca-S-E-V-N-L-D-A-E-F-R-K(Dnp)-R-R—NH2, using a recombinant enzyme.
The test compound, reference compound or water (control) was added to a buffer containing 0.09 M sodium acetate (pH 4.5) and 0.25 μg BACE-1. Compound interference with the fluorimetric detection method due to autofluorescence was then checked by measurements at the wavelengths defined to evaluate the enzyme activity. Thereafter, the reaction was initiated by adding 7.5 μM of the substrate Mca-S-E-V-N-L-D-A-E-F-R-K(Dnp)-R—R—NH2 and the mixture was incubated for 60 min at 37° C. For control basal measurement, the substrate was omitted from the reaction mixture. Immediately after the incubation, the fluorescence intensity emitted by the reaction product Mca-S-E-V-N-L-NH2 was measured at λex=320 nm and λem=405 nm using a microplate reader (Ultra, Tecan). The standard inhibitory reference compound was OM99-2, which was tested in each experiment at several concentrations to obtain an inhibition curve from which its IC50 value was calculated.

Molecules are shown by their SMILES. A value given as a limit tells only on which side of the number the result lay.

As to `CCOc1ccccc1CNCc1cccc(Sc2cc3cc(CC4CCOCC4)c(N)nc3cc2F)c1` [Compound 18, 6-{3-[(2-Ethoxy-benzylamino)-methyl]-phenylsulfanyl}-7-fluoro-3-(tetrahydro-pyran-4-ylmethyl)-quinolin-2-ylamine], the inhibition – broadly, the drop in the measured response relative to a control, in per cent – at 10 µM is 95% and the IC50 (in general, the concentration that gives 50% inhibition) stood at 260 nM.

In the case of `CCCC(NCc1cccc(Sc2ccc3nc(N)c(CC4CCOCC4)cc3c2)c1)C(=O)O` (stereo not drawn) [Compound 13], the inhibition at 10 µM amounted to 63% and the IC50 came to 2800 nM.

As for `Nc1nc2ccc(Sc3cccc(CNCc4c(F)cccc4F)c3)cc2cc1CC1CCOCC1` [Compound 4], the inhibition at 10 µM is 97% and the IC50 is 400 nM.

As for `Nc1nc2ccc(Sc3cccc(CNCc4ccccn4)c3)cc2cc1CC1CCOCC1` [Compound 5], the inhibition at 10 µM is 93% and the IC50 came out at 800 nM.

As to `Cc1ccc(C)c(COCc2cccc(Sc3ccc4nc(N)c(CC5CCOCC5)cc4c3)c2)c1` [Compound 16], the inhibition at 10 µM was 93% and the IC50 was determined as 1200 nM.

As for `Cc1ccc(CNCc2cccc(Sc3ccc4nc(N)c(CC5CCOCC5)cc4c3)c2)c(C)c1` [Compound 6], the inhibition at 10 µM came to 98% and the IC50 amounted to 450 nM.

For the compound `Nc1nc2ccc(Sc3cccc(CCNCc4ccccn4)c3)cc2cc1CC1CCOCC1` [Compound 21], the inhibition at 10 µM was 91% and the IC50 was 630 nM.

As to `Cc1cc(C)c(CNCc2cccc(Oc3ccc4nc(N)c(CCC5CCOCC5)cc4c3)c2)c(C)c1` [Compound (II-b), 3-[2-(Tetrahydro-pyran-4-yl)-ethyl]-6-{3-[(2,4,6-trimethylbenzylamino)-methyl]-phenoxy}-quinolin-2-ylamine], the inhibition at 10 µM was determined as 74% and the IC50 was above 10000 nM.

In the case of `Cc1cc(C)c(NCc2cccc(Sc3ccc4nc(N)c(CC5CCOCC5)cc4c3)c2)c(C)c1` [Compound 2], the inhibition at 10 µM was 94% and the IC50 came out at 920 nM.

In the case of `COc1ccc(CNCc2cccc(Sc3ccc4nc(N)c(CC5CCOCC5)cc4c3)c2)c(OC)c1` [Compound 7], the inhibition at 10 µM is 90% and the IC50 was determined as 380 nM.

Regarding `Nc1nc2ccc(Sc3cccc(CNCc4ccc(C(F)(F)F)cc4)c3)cc2cc1CC1CCOCC1` [Compound 12], the inhibition at 10 µM worked out at 90% and the IC50 is 460 nM.

As to `CCOc1ccccc1CNCCc1cccc(Sc2ccc3nc(N)c(CC4CCOCC4)cc3c2)c1` [Compound 20], the inhibition at 10 µM amounted to 98% and the IC50 was 140 nM.

In the case of `Nc1nc2ccc(Sc3cccc(CNCc4ccc(Cl)cc4Cl)c3)cc2cc1CC1CCOCC1` [Compound 9], the inhibition at 10 µM came out at 98% and the IC50 came out at 240 nM.

With `Nc1nc2ccc(Sc3cccc(CNCc4cc(F)ccc4F)c3)cc2cc1CC1CCOCC1` [Compound 8], the inhibition at 10 µM was 95% and the IC50 was found to be 210 nM.

Consider `Nc1nc2ccc(Sc3cccc(CSc4cccc(CC(=O)O)c4)c3)cc2cc1CC1CCOCC1` [Compound 17], for which the inhibition at 10 µM worked out at 94% and the IC50 came to 330 nM.

For the compound `Cc1cc(C)c(CNCc2cccc(Sc3ccc4nc(N)c(CC5CCOCC5)cc4c3)c2)c(C)c1` [Compound 1, 3-(Tetrahydro-pyran-4-ylmethyl)-6-{3-[(2,4,6-trimethyl-benzylamino)-methyl]-phenylsulfanyl}-quinolin-2-ylamine], the inhibition at 10 µM came to 96% and the IC50 was 260 nM.

Turning to `CCOc1ccccc1CNCc1cccc(Sc2ccc3nc(N)c(CC4CCOCC4)cc3c2)c1` [Compound 10], the inhibition at 10 µM is 95% and the IC50 was found to be 300 nM.

Turning to `Cc1cc(C)c(CNCc2cccc(Oc3ccc4nc(N)c(CC5CCOCC5)cc4c3)c2)c(C)c1` [Compound (II-a), 3-(Tetrahydro-pyran-4-ylmethyl)-6-{3-[(2,4,6-trimethylbenzylamino)-methyl]-phenoxy}-quinolin-2-ylamine], the inhibition at 10 µM was determined as 98% and the IC50 was 1200 nM.
